Results reported in patent US9833405B2, “Biodegradable microdepot delivery system for topical delivery” (Nano and Advanced Materials Institute Limited, priority 2014, dated 2017).
Where a SMILES comes first, the peptide text is derived from it. The star is where a group is joined. Palmitoyl = CCCCCCCCCCCCCCCC(=O)*

Test system: HaCaT cells
Test: Cell viability assay (MTT) for in vitro skin irritation of active ingredients
Format: cell-based, human
Details: for Cell viability(%): MTT
Experimental: HaCaT cells, a human keratinocyte cell line, are used as the in vitro model to test any irritation effect of the active ingredients used in the polymeric solution to form the microdepot delivery system of the present invention. The following is the procedures of an MTT assay for testing any skin irritation effect of the active ingredients used in the polymeric solution of the present invention: • a) 12 mM MTT stock solution is prepared by adding 1 mL of sterile PBS into one 5 mg vial of MTT (Component A) and mixed by sonication until the vial of MTT is dissolved in the PBS; • b) HaCaT cells at 5,000 cells per well are seed into a 96-well plate and incubated at 37° C. in 5% CO2 for 24 to 48 hours until the cells become adherent; • c) Culture medium in each well is removed and replaced with 100 μL of test compound (e.g., active ingredient used in the polymeric solution of the present invention); • d) 10 μL of the MTT stock solution prepared in step (a) is added to each well; a negative control containing 100 μL of culture medium and 10 μL of the MTT stock solution is also included for comparison; • e) Both test samples and negative control prepared in step (d) are incubated at 37° C. for 4 hours; • f) 25 μL of the solution is removed from each well after incubation in step (e) followed by adding 50 μL of DMSO to each well and mix thoroughly by pipette; • g) The mixture in step (f) is incubated at 37° C. for 10 minutes; • h) The mixture in each well after the incubation in step (g) is mixed again before measuring absorbance at 540 nm; • i) The mixture is subject to a spectrophotometer to measure the absorbance at 540 nm.
The cell viability of HaCaT cells with the treatment of the test compound is calculated based on the following formula:
[formula] where ^OD(1) is the absorbance of culture medium only; ^OD(2) is the absorbance of the culture medium with the cells; ^OD(3) is the absorbance of the culture medium with the test compound; and ^OD(4) is the absorbance of the culture medium with the cells and test compound.

Row | Molecule | Cell viability(%) (test compound 2%) | Cell viability(%) (test compound 4%) | Cell viability(%) (test compound 6%) | Cell viability(%) (test compound 8%) | Cell viability(%) (test compound 10%) | cytotoxicity (viability higher than or equal to control) (at 2%) | Cell viability(%) (test compound 3%) | Cell viability(%) (test compound 5%) | cytotoxicity (viability higher than or equal to control) (concentrations ranging from 3% to 10%) | Cell viability(%) (test compound 0.2%) | Cell viability(%) (test compound 0.5%) | Cell viability(%) (test compound 1%) | cytotoxicity (viability higher than or equal to control) (concentrations ranging from 0.2% to 5%)
1 | NC(=O)c1cccnc1 [Niacinamide, reference compound] | 115 | 91.34 | 77.44 | 84.08 | 80.43 | non-cytotoxic |  |  |  |  |  |  | 
2 | CCCCCCCCCCCCCCCC(=O)N[C@@H](CCCCN)C(=O)N[C@H](C(=O)N[C@H](C(=O)N[C@@H](CCCCN)C(=O)N[C@@H](CO)C(=O)O)[C@@H](C)O)[C@@H](C)O [Pal-KTTKS] (Palmitoyl-KTTKS-OH) |  | 135.1 |  | 141.9 | 127.8 |  | 119 | 122.6 | non-cytotoxic |  |  |  | 
3 | GHK-Cu | 132.7 |  |  |  |  |  |  | 136.1 |  | 135.1 | 139.6 | 144.6 | non-cytotoxic
